Laboratory results reported in patent US20140288040A1, “SUBSTITUTED BENZYLAMINE COMPOUNDS, THEIR USE IN MEDICINE, AND IN PARTICULAR THE TREATMENT OF HEPATITIS C VIRUS (HCV) INFECTION” (ASTEX THERAPEUTICS LIMITED, priority 2011, published 2014).
Structures can show the parent of a compound that is named as a salt. Where two headings read alike, the source gives them in different places.

Columns and labels:
[1] = target: T1, HCV NS3 protease (full length NS34a) (Hepatitis C virus genotype 1b, UniProt P26663); test: HCV NS3 protease assay (FRET, full length NS34a); assay type: biochemical; conditions: for inhibition at 0.01 µM: read-out: Activity % inhibition @ 0.01 μM; for inhibition at 0.03 µM: read-out: Activity % inhibition @ 0.03 μM, 0.03 μM compound
T1 construct: The protease activity of the full length NS34a was measured using a FRET-based assay; made in house
T1 sequence (P26663 1658-1711): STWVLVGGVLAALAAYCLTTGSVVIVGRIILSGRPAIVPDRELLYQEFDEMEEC
T1 sequence (P26663 1027-1657): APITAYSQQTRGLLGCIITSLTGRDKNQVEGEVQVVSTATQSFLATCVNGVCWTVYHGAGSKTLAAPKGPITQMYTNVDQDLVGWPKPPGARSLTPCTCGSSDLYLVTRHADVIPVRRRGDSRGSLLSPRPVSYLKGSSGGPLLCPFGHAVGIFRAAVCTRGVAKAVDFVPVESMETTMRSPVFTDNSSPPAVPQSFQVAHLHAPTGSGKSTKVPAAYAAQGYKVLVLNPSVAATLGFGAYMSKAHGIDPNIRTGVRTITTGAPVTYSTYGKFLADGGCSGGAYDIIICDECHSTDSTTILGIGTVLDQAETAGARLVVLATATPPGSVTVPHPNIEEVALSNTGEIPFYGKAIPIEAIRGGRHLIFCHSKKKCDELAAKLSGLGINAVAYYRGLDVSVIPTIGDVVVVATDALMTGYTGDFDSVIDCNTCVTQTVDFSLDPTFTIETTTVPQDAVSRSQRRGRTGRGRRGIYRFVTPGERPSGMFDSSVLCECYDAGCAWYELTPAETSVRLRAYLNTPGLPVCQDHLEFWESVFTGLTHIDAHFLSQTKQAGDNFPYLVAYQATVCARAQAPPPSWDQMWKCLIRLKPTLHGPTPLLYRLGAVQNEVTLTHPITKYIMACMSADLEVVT
In short: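 Full-length NS34a incubated with compound and an NS4AB cleavage-site FRET peptide (QXL520 quencher, 5-FAMsp fluorophore) in 50 mM Tris pH8, 20 mM DTT, 1% CHAPS, 10% glycerol, 5% DMSO. Fluorescence followed for 30 minutes at room temperature; IC50 from initial rates of replicate progress curves.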

[2] = system: HCV subgenomic replicon in Huh-7 cells; test: Replicon assay, EC50 luciferase readout; assay type: cell-based, hepatitis C virus (HCV)
In short: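 Huh-7 cells carrying a subgenomic HCV replicon (NS3-NS5b, firefly luciferase-neo fusion) were treated with compound for 72 h at 37°C, 5% CO2. EC50 derived from Bright-Glo luciferase signal as a proxy for HCV RNA; cell viability measured in parallel by Alamar blue.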

[3] = Hepatitis C virus, Huh-7, 72 h, Huh-7 replicon cells, 72 h, single value, or second value of a pair x:y, read-out: Activity EC50 (μM) (EC50 luciferase readout)
[4] = protease activity of full length NS34a, FRET peptide substrate, read-out: Activity IC50
[5] = IC50 values of 10-150 μM against the protease activity of the full length NS34a, or at least 40% inhibition of protease activity at a concentration of 100 μM

SMILES | EC50 [2, 3] [µM] | IC50 [1, 4] [nM] | other results
CC[C@@H](N[C@@H](C)C(=O)NCCN)c1ccc(Cl)c(Oc2ccccc2)c1F [Example 9, (S)—N-(2-Amino-ethyl)-2-[(R)-1-(4-chloro-2-fluoro-3-phenoxy-phenyl)-propylamino]-propionamide dihydrochloride] | 10 | – | inhibition at 0.01 µM [1]: 40.5%
CC[C@@H](N[C@H](C)CC(N)=O)c1ccc(Cl)c(Oc2ccc(N)nc2)c1F [Example 123] | 4.7 | 1600 | –
C[C@@H](CO)N[C@@H](CC1CCNCC1)c1ccc(F)c(Oc2ccccc2)c1F [Example 96] | 0.24 | 6700 | –
CC[C@@H](N[C@@H](C)CC(N)=O)c1ccc(Cl)c(Oc2ccc(N)c(F)c2)c1F [Example 333] | 0.057 | 61 | –
C[C@@H](CC(N)=O)N[C@@H](CC1CCNCC1)c1ccc(F)c(Oc2ccccc2)c1F [Example 98] | > 10 | 1600 | –
CC[C@@H](N[C@@H](C)CC(=O)NCCN)c1ccc(Cl)c(Oc2ccc(N)c(C)c2)c1F [Example 238B, (S)—N-(2-Amino-ethyl)-3-{(R)-1-[3-(4-amino-3-methyl-phenoxy)-4-chloro-2-fluoro-phenyl]-propylamino}-butyramide] | 0.03 | – | inhibition at 0.03 µM [1]: 58%; EC50 ([2]; Hepatitis C virus, Huh-7, replicon assay, set in line with previous observations, read-out: pre-determined EC50 set for the combination experiments): 0.03 µM
OCCN[C@@H](CC1CCNCC1)c1ccc(F)c(Oc2ccccc2)c1F [Example 101] | 0.23 | 1300 | –
CC[C@@H](N[C@@H](C)CC(=O)N[C@@H](C)CN)c1ccc(Cl)c(Oc2ccccc2)c1F [Example 251] | 1.8 | 61 | –
CC[C@@H](N[C@H](CC(N)=O)C1CC1)c1ccc(Cl)c(Oc2ccccc2)c1F [Example 165] | > 10 | – | IC50 [1, 5]: 10000 to 150000 nM
CC(CO)NC(c1ccc(F)c(Oc2ccccc2)c1F)C1CCNCC1 (single isomer, unassigned) [Example 76, 2-{[(2,4-Difluoro-3-phenoxy-phenyl)-piperidin-4-yl-methyl]-amino}-propan-1-ol.dihydrochloride] | – | 2900 | EC50 ([2]; Huh-7 replicon cells, 72 h, single value, or second value of a pair x:y, read-out: Activity EC50 (μM) (EC50 luciferase readout)): 6 µM
CCC(NCCC(N)=O)c1ccc(F)c(Oc2ccccc2)c1F (stereo not shown) [Example 71] | > 30 | 950 | –
CC[C@@H](N[C@@H](C)CC(=O)NCCN)c1ccc(Cl)c(Oc2ccccc2)c1F [Example 224] | 0.0088 | – | inhibition at 0.01 µM [1]: 65.5%
N[C@H]1CC[C@@H](NCc2ccc(F)c(Oc3ccccc3)c2F)CC1 [Example 283] | 0.27 | 750 | –
CCC(NCCCO)c1ccc(F)c(Oc2ccccc2)c1F (stereo not shown) [Example 56, 3-[1-(2,4-Difluoro-3-phenoxy-phenyl)-propylamino]-propan-1-ol.hydrochloride] | 11 | 1100 | –
CC[C@@H](N[C@@H](C)CC(=O)NC1CCNCC1)c1ccc(Cl)c(Oc2ccccc2)c1F [Example 264] | 0.6 | 4600 | –
CC[C@@H](N[C@@H](C)CC(=O)N[C@H]1C[C@H](N)C1)c1ccc(Cl)c(Oc2ccccc2)c1F [Example 319] | 8.6 | 3500 | –
N[C@H](c1ccc(F)c(Oc2ccccc2)c1F)[C@@H]1CCCNC1 [Example 59B, C-(2,4-Difluoro-3-phenoxy-phenyl)-C-piperidin-3-yl-methylamine. dihydrochloride] | 3 | 2100 | –
C[C@@H](CC(N)=O)N[C@H](CC1CCNCC1)c1ccc(F)c(Oc2ccccc2)c1F [Example 84] | 18 | 450 | –
CC[C@@H](N[C@@H](C)CC(=O)NCC(N)=O)c1ccc(Cl)c(Oc2ccccc2)c1F [Example 178] | 8 | 2200 | –
CC(CO)NC(c1ccc(F)c(Oc2ccccc2)c1F)C1CCNCC1 (single isomer, unassigned) [Example 75, 2-{[(2,4-Difluoro-3-phenoxy-phenyl)-piperidin-4-yl-methyl]-amino}-propan-1-ol.dihydrochloride] | 4.8 | 3300 | –
CCC(NC1CCC1)c1ccc(F)c(Oc2ccccc2)c1F (stereo not shown) [Example 44] | 9.9 | 4700 | –
N[C@@H](CC1CCNCC1)c1ccc(F)c(Oc2ccccc2)c1F [Example 93] | 1.8 | 790 | –
N[C@H](c1ccc(F)c(Oc2ccccc2)c1F)[C@H]1CCOC1 (relative stereo) [Example 61, C-(2,4-Difluoro-3-phenoxy-phenyl)-C-(tetrahydrofuran-3-yl)-methylamine.hydrochloride] | > 30 | – | IC50 [1, 5]: 10000 to 150000 nM
CC[C@H](N[C@@H](C)CO)c1ccc(F)c(Oc2ccccc2)c1F [Example 64] | 18 | 430 | –

SMILES | EC50 [2, 3] [µM] | IC50 [1, 4] [nM] | other results
CC[C@@H](N)c1ccc(F)c(Oc2ccccc2)c1F [Example 11] | 0.8 | 2200 | –
CC[C@@H](N[C@@H](C)CC(N)=O)c1ccc(Cl)c(Oc2ccc(C(N)=O)nc2)c1F [Example 249] | 4.6 | 380 | –
CC[C@@H](N[C@H](C)CC(N)=O)c1ccc(Cl)c(Oc2ccc(N)c(Cl)c2)c1F [Example 267] | > 10 | 480 | –
CC(C)C(N)c1ccc(F)c(Oc2ccccc2)c1F (stereo not shown) [Example 1, 1-(2,4-Difluoro-3-phenoxy-phenyl)-2-methyl-propylamine. hydrochloride] | 15 | 2500 | –
NC(c1ccc(=O)[nH]c1)c1ccc(F)c(Oc2ccccc2)c1F (stereo not shown) [Example 73, 5-[Amino-(2,4-difluoro-3-phenoxy-phenyl)-methyl]-1H-pyridin-2-one] | > 30 | – | IC50 [1, 5]: 10000 to 150000 nM
CNC(CC(C)C)c1ccc(F)c(Oc2ccccc2)c1F (stereo not shown) [Example 16, [1-(2,4-Difluoro-3-phenoxy-phenyl)-3-methyl-butyl]-methyl-amine. hydrochloride] | 0.58 | 4000 | –
CC[C@@H](N[C@@H](C)C(=O)NCCCN)c1ccc(Cl)c(Oc2ccccc2)c1F [Example 331] | > 10 | – | inhibition at 0.03 µM [1]: 49.5%
N[C@H]1CC[C@H](NCc2ccc(F)c(Oc3ccccc3)c2F)CC1 [Example 282] | 0.37 | 730 | –
CC[C@H](NCCC(=O)NCCO)c1ccc(F)c(Oc2ccccc2)c1F [Example 92, 3-[(S)-1-(2,4-Difluoro-3-phenoxy-phenyl)-propylamino]-N-(2-hydroxy-ethyl)-propionamide.hydrochloride] | > 30 | 910 | –
CC[C@@H](N[C@@H](C)CC(N)=O)c1ccc(Cl)c(Oc2ccc(C#N)cc2)c1F [Example 186] | 0.13 | 39 | –
CC[C@@H](N[C@@H](C)CC(N)=O)c1ccc(Cl)c(Oc2ccc(C#N)nc2)c1F [Example 246] | > 10 | 170 | –
CC[C@H](N[C@H](C)CC(N)=O)c1ccc(Cl)c(Oc2ccccc2)c1F [Example 80, (R)-3-[(S)-1-(4-Chloro-2-fluoro-3-phenoxy-phenyl)-propylamino]-butyramide.hydrochloride] | > 10 | – | IC50 [1, 5]: 10000 to 150000 nM
CC[C@@H](N[C@H](C)CC(=O)NCCN)c1ccc(Cl)c(Oc2ccc(N)c(C)c2)c1F [Example 239] | 0.97 | – | inhibition at 0.03 µM [1]: 41%
CC[C@@H](N[C@@H](C)c1ccc[nH]c1=O)c1ccc(Cl)c(Oc2ccccc2)c1F (single isomer, unassigned) [Example 315] | > 10 | 3500 | –
CCCC(N)c1ccc(F)c(Oc2ccccc2)c1F (stereo not shown) [Example 12] | 10 | 1200 | –
CC[C@@H](N[C@H](C)CO)c1ccc(F)c(Oc2ccccc2)c1F [Example 58] | 27 | 1000 | –
CC[C@@H](N[C@@H](C)CC(N)=O)c1ccc(Cl)c(Oc2ccc(C#N)c(OC)c2)c1F [Example 210] | – | 160 | EC50 ([2]; Hepatitis C virus, Huh-7, 72 h, read-out: Activity EC50 (μM) (EC50 luciferase readout), Huh-7 replicon cells, 72 h, single value, or second value of a pair x:y): 0.2 µM
CC[C@@H](N[C@@H](C)CC(=O)NC1CNC1)c1ccc(Cl)c(Oc2ccccc2)c1F [Example 234] | 7.3 | – | inhibition at 0.03 µM [1]: 57%
CC[C@@H](N[C@H](C)CC(N)=O)c1ccc(Cl)c(Oc2ccc(N)c(C)c2)c1F [Example 128] | > 10 | 1200 | –
CCC[C@H](N)c1ccc(Cl)c(Oc2ccccc2)c1F [Example 119] | 3.4 | 320 | –
N[C@H](c1ccc(F)c(Oc2ccccc2)c1F)[C@H]1CCCNC1 [Example 60, C-(2,4-Difluoro-3-phenoxy-phenyl)-C-piperidin-3-yl-methylamine.dihydrochloride] | 3 | – | IC50 [1, 5]: 10000 to 150000 nM
CCC(N[C@H]1CC[C@H](N)CC1)c1ccc(F)c(Oc2ccccc2)c1F (stereo partly drawn) [Example 5, Trans-N-[1′-(2,4-difluoro-3-phenoxy-phenyl)-propyl]-cyclohexane-1,4-diamine] | 0.13 | 2000 | –
CS(=O)(=O)Nc1cccc(Oc2c(F)ccc(CN[C@H]3CC[C@H](N)CC3)c2F)c1 [Example 284] | > 10 | 1400 | –
CC[C@@H](N[C@@H](C)CC(N)=O)c1ccc(Cl)c(Oc2ccc3c(c2)C(C)(C)CN3)c1F [Example 322] | 1.2 | 270 | –
